Laboratory results: patent publication US6150385A, “1,3,4-thiadiazoles useful for the treatment of CMV infections” (Pharmacia & Upjohn Company, priority 1999, dated 2000)

Molecular target: T1, HCMV polymerase (Human cytomegalovirus, UniProt P08546)
T1 construct: made in house; host or cells: SF-9 insect cells infected with recombinant baculovirus
Test: HCMV polymerase assay (scintillation proximity assay)
Assay type: biochemical
Settings: percentage of inhibition at 25 μM concentration in CMV polymerase assay
Procedure, shortened: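 Baculovirus/SF-9-expressed HCMV polymerase in 5.4 mM HEPES pH 7.5, 11.7 mM KCl, 4.5 mM MgCl2, 0.36 mg/ml BSA, 90 nM 3H-dTTP, with or without 2 mM CHAPS. Started with 6 nM biotinylated poly(dA)-oligo(dT), 30 min at 25 or 37 °C, EDTA-stopped, read by streptavidin-SPA counting; % inhibition at 25 μM.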

T1 sequence (P08546 whole entry): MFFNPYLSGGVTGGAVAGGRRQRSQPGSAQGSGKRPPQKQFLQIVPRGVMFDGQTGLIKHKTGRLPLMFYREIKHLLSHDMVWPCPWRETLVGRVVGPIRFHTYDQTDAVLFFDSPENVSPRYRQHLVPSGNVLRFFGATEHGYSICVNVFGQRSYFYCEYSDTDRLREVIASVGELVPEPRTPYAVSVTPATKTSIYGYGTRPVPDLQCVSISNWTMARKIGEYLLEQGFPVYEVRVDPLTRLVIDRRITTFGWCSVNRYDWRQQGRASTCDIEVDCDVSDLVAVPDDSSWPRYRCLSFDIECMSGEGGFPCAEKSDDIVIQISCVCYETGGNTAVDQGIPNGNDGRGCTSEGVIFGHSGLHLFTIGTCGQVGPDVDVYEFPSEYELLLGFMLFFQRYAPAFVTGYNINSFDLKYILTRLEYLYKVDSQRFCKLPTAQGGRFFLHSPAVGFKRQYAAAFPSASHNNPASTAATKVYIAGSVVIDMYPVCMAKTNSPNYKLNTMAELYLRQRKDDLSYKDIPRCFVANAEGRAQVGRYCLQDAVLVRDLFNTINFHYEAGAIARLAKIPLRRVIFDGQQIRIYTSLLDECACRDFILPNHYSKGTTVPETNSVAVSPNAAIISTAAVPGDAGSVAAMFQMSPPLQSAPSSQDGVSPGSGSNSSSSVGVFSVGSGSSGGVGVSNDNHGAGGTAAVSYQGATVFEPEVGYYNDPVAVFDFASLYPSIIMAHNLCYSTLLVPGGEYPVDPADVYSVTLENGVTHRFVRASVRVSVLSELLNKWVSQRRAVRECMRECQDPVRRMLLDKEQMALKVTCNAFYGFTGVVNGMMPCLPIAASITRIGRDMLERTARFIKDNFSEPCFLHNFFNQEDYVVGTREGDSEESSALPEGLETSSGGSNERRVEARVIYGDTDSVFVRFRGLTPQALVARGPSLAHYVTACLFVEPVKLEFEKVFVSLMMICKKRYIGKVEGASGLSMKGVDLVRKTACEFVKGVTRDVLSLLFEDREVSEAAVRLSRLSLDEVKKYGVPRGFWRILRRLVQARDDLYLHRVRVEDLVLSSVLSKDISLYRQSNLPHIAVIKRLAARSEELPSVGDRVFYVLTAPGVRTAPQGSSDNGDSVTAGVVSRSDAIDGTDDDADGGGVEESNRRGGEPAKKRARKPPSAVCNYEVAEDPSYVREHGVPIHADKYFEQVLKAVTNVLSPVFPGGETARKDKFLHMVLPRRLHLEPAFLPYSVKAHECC

| inhibition at 25 µM [%] | Compound |
| --- | --- |
| 46 | O=C(Nc1nnc(NCCSc2ccccc2)s1)c1ccc(I)cc1 [compound 198, 4-iodo-N-(5-{[2-(phenylsulfanyl)ethyl]amino}-1,3,4-thiadiazol-2-yl)benzamide] |
| 33.9 | NS(=O)(=O)c1ccc(CNc2nnc(NC(=O)c3ccc(Cl)c(Cl)c3)s2)cc1 [compound 311, N-(5-{[4-(aminosulfonyl)benzyl]amino}-1,3,4-thiadiazol-2-yl)-3,4-dichlorobenzamide] |
| 56.9 | COc1ccc(CNc2nnc(NC(=O)c3ccc(I)cc3)s2)cc1OC [compound 134, N-{5-[(3,4-dimethoxybenzyl)amino]-1,3,4-thiadiazol-2-yl}-4-iodobenzamide] |
| 25.5 | O=C(Nc1nnc(NCc2cccc3ccccc23)s1)c1ccc(I)cc1 [compound 402, 4-iodo-N-{5-[(1-naphthylmethyl)amino]-1,3,4-thiadiazol-2-yl}benzamide] |
| 22.6 | O=C(Nc1nnc(NCCNc2ccccc2)s1)c1c(Cl)cccc1Cl [compound 438, N-{5-[(2-anilinoethyl)amino]-1,3,4-thiadiazol-2-yl}-2,6-dichlorobenzamide] |
| 65.9 | O=C(Nc1nnc(NCc2ccc3c(c2)OCO3)s1)c1c(Cl)cccc1Cl [compound 96] |
| 21.4 | CCOc1ccc2ccccc2c1C(=O)Nc1nnc(NCC2CCCO2)s1 (stereo not drawn) [compound 450, 2-ethoxy-N-{5-[(tetrahydro-2-furanylmethyl)amino]-1,3,4-thiadiazol-2-yl}-1-naphthamide] |
| 47.4 | O=C(CCCCCl)Nc1nnc(NCC(c2ccccc2)c2ccccc2)s1 [compound 186, 5-chloro-N-{5-[(2,2-diphenylethyl)amino]-1,3,4-thiadiazol-2-yl}pentanamide] |
| 37.9 | O=C(/C=C/c1ccccc1Cl)Nc1nnc(NC2CCC2)s1 [compound 276, (E)-3-(2-chlorophenyl)-N-[5-(cyclobutylamino)-1,3,4-thiadiazol-2-yl]-2-propenamide] |
| 26.3 | NS(=O)(=O)c1ccc(CCNc2nnc(NC(=O)CCCCCl)s2)cc1 [compound 390, N-(5-{[4-(aminosulfonyl)phenethyl]amino}-1,3,4-thiadiazol-2-yl)-5-chloropentanamide] |
| 40.2 | O=C(Nc1nnc(NCCc2c[nH]c3ccccc23)s1)c1ccc(I)cc1 [compound 252, N-(5-{[2-(1H-indol-3-yl)ethyl]amino}-1,3,4-thiadiazol-2-yl)-4-iodobenzamide] |
| 56.4 | O=C(Nc1nnc(NCCCNC2CCCCC2)s1)c1cccc([N+](=O)[O-])c1 [compound 137, N-(5-{[3-(cyclohexylamino)propyl]amino}-1,3,4-thiadiazol-2-yl)-3-nitrobenzamide] |
| 65.6 | O=C(Nc1nnc(NCCCn2ccnc2)s1)c1c(Cl)cccc1Cl [compound 99, 2,6-dichloro-N-(5-{[3-(1H-imidazol-1-yl)propyl]amino}-1,3,4-thiadiazol-2-yl)benzamide] |
| 33.6 | CCOc1ccc2ccccc2c1C(=O)Nc1nnc(NCCSCC)s1 [compound 318, 2-ethoxy-N-(5-{[2-(ethylsulfanyl)ethyl]amino}-1,3,4-thiadiazol-2-yl)-1-naphthamide] |
| 22.3 | CC(C)c1cc(C(C)C)c(C(=O)Nc2nnc(NCc3ccco3)s2)c(C(C)C)c1 [compound 442, N-{5-[(2-furylmethyl)amino]-1,3,4-thiadiazol-2-yl}-2,4,6-triisopropylbenzamide] |
| 100 | O=C(Nc1nnc(NCCCNC2CCCCC2)s1)c1ccc2c(c1)C(=O)OC2=O [compound 2, N-(5-{[3-(cyclohexylamino)propyl]amino}-1,3,4-thiadiazol-2-yl)-1,3-dioxo-1,3-dihydro-2-benzofuran-5-carboxamide] |
| 25.8 | CC(=O)NCCNc1nnc(NC(=O)/C=C/c2ccccc2)s1 [compound 400, (E)-N-(5-{[2-(acetylamino)ethyl]amino}-1,3,4-thiadiazol-2-yl)-3-phenyl-2-propenamide] |

The next lines start with the molecule.

| Compound | inhibition at 25 µM [%] |
| --- | --- |
| CCCCCCCC/C=C/CCCCCCCC(=O)Nc1nnc(NCC2CCCO2)s1 (stereo not drawn) [compound 246, (E)-N-{5-[(tetrahydro-2-furanylmethyl)amino]-1,3,4-thiadiazol-2-yl}-9-octadecenamide] | 40.9 |
| CCCCCCCC/C=C/CCCCCCCC(=O)Nc1nnc(NCCSc2ccccc2)s1 [compound 58, (E)-N-(5-{[2-(phenylsulfanyl)ethyl]amino}-1,3,4-thiadiazol-2-yl)-9-octadecenamide] | 75.8 |
| CC(C)(C)OC(=O)CCNc1nnc(NC(=O)/C=C/c2ccccc2)s1 [compound 120, tert-butyl 3-[(5-{[(E)-3-phenyl-2-propenoyl]amino}-1,3,4-thiadiazol-2-yl)amino]propanoate] | 60 |
| CC(C)c1cc(C(C)C)c(C(=O)Nc2nnc(NCC(c3ccccc3)c3ccccc3)s2)c(C(C)C)c1 [compound 176, N-{5-[(2,2-diphenylethyl)amino]-1,3,4-thiadiazol-2-yl}-2,4,6-triisopropylbenzamide] | 49.4 |
| CCCCCCCC/C=C/CCCCCCCC(=O)Nc1nnc(NCCC(c2ccccc2)c2ccccc2)s1 [compound 64, (E)-N-{5-[(3,3-diphenylpropyl)amino]-1,3,4-thiadiazol-2-yl}-9-octadecenamide] | 73.6 |
| CCCCCCCC/C=C/CCCCCCCC(=O)Nc1nnc(NCc2ccccn2)s1 [compound 171, (E)-N-{5-[(2-pyridinylmethyl)amino]-1,3,4-thiadiazol-2-yl}-9-octadecenamide] | 49.9 |
| CCCCCCCC/C=C/CCCCCCCC(=O)Nc1nnc(NCCC(=O)OC(C)(C)C)s1 [compound 79, tert-butyl-3-({5-[(E)-9-octadecenoylamino]-1,3,4-thiadiazol-2-yl}amino)propanoate] | 68 |
| O=C(Nc1nnc(NCC(c2ccccc2)c2ccccc2)s1)c1ccc(Br)cc1 [compound 385, 4-bromo-N-{5-[(2,2-diphenylethyl)amino]-1,3,4-thiadiazol-2-yl}benzamide] | 27.2 |
| COc1ccc(CNc2nnc(NC(=O)c3ccc4c(c3)C(=O)OC4=O)s2)cc1OC [compound 16, N-{5-[(3,4-dimethoxybenzyl)amino]-1,3,4-thiadiazol-2-yl}-1,3-dioxo-1,3-dihydro-2-benzofuran-5-carboxamide] | 98.7 |
| CC(C)c1cc(C(C)C)c(C(=O)Nc2nnc(NCC3CCCCC3)s2)c(C(C)C)c1 [compound 409, N-{5-[(cyclohexylmethyl)amino]-1,3,4-thiadiazol-2-yl}-2,4,6-triisopropylbenzamide] | 24.9 |
| CC(C)(C)OC(=O)CCNc1nnc(NC(=O)c2ccc3c(c2)C(=O)OC3=O)s1 [compound 340, tert-butyl 3-[(5-{[(1,3-dioxo-1,3-dihydro-2-benzofuran-5-yl)carbonyl]amino}-1,3,4-thiadiazol-2-yl)amino]propanoate] | 31.5 |
| CCOc1ccc2ccccc2c1C(=O)Nc1nnc(NC2CCN(Cc3ccccc3)CC2)s1 [compound 45, N-{5-[(1-benzyl-4-piperidinyl)amino]-1,3,4-thiadiazol-2-yl}-2-ethoxy-1-naphthamide] | 83.1 |
| CCCCCCCC/C=C/CCCCCCCC(=O)Nc1nnc(NCC2CC2)s1 [compound 113, (E)-N-{5-[(cyclopropylmethyl)amino]-1,3,4-thiadiazol-2-yl}-9-octadecenamide] | 62.2 |
